The results in this text go back to patent US6586402B1, “LH-RH peptide analogues, their uses and pharmaceutical compositions containing them” (Laboratoire Theramex, priority 1997, dated 2003).

Entries after “also recorded” stand apart in the source; their conditions may differ. Square brackets hold non-standard residues; d marks the D form. Peptide text beside a SMILES is read from it. dPhe(4-Cl) = N[C@H](Cc1ccc(Cl)cc1)C(=O)O; d(hCit) = NC(=O)NCCCC[C@@H](N)C(=O)O; dCit = NC(=O)NCCC[C@@H](N)C(=O)O; tBuAla = CC(C)(C)C[C@H](N)C(=O)O; d3Pal = N[C@H](Cc1cccnc1)C(=O)O; pGlu = O=C1CC[C@@H](C(=O)O)N1

What is called Ki is a dissociation constant, usually derived from enzyme kinetics or from competition with a known ligand. Lower therefore signals higher affinity. One may read the pKi as the Ki on a negative log10 scale, so that one unit is a factor of ten. A higher pKi goes with a low Ki.

Experiment [1] concerns the target T1, LH-RH receptors (Rattus norvegicus, UniProt P30969).
T1 sequence (P30969 1-327): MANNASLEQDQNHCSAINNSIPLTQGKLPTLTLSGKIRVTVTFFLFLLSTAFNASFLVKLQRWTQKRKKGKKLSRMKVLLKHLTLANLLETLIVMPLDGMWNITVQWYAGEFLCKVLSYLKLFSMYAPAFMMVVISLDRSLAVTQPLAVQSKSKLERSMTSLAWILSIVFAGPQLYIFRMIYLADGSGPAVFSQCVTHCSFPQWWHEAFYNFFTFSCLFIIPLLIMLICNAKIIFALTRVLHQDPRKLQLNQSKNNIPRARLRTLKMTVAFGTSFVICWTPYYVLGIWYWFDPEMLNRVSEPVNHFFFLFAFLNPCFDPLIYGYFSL
In words: biochemical.

In experiment [2] the target is T1, LH-RH receptors. Description: Stimulation of testosterone secretion in adult male rats after subcutaneous injection (agonist activity in vivo). Details: exert an agonist activity upon the LH-RH receptors in vivo; from tissue; host or cells: whole animal, adult male Sprague-Dawley rats; species or system Sprague-Dawley rats. The settings on record: for Total plasma testosterone: Table 2, 10 ng/kg subcutaneous in PBS, blood two hours later, male Sprague-Dawley rats, vehicle 2.7 ± 0.3; for agonistic potency in words: comment on Tables 2 and 3. As for the experimental part:
The peptides according to the general formula (IIa) exert an agonist activity upon the LH-RH receptors in vivo, resulting in the stimulation of LH secretion by the pituitary, which, in males, stimulates the secretion of testosterone by the testis.
Two hours later, blood samples were drawn for total plasma testosterone determination by direct radioimmunoassay (Immunotech).
At this intermediate dose of 10 ng/kg, several examples with Npg^7 or Ada^7 in place of Leu^7 according to the invention were screened for agonistic activity (Tables 2 and 3). When available from Bachem (France) or Sigma (France), the corresponding standard agonist with Leu^7 was tested for comparison.

The target in experiment [3] is LH-RH receptors (membrane fractions of pituitaries from female Sprague Dawley rats) (rat (female Sprague Dawley)) (UniProt P30969). In words: competition with [125I]-buserelin, rat pituitary membranes; Ki by Cheng-Prusoff.

As for `CCNC(=O)[C@@H]1CCCN1C(=O)[C@H](CCCNC(=N)N)NC(=O)[C@H](CC(C)C)NC(=O)[C@@H](COC(C)(C)C)NC(=O)[C@H](Cc1ccc(O)cc1)NC(=O)[C@H](CO)NC(=O)[C@H](Cc1c[nH]c2ccccc12)NC(=O)[C@H](Cc1cnc[nH]1)NC(=O)[C@@H]1CCC(=O)N1` [Buserelin, reference compound], affinity at LH-RH receptors [1] was put at a Ki of 0.447 nM.
Turning to `C[C@@H](NC(=O)[C@H](Cc1ccc(O)cc1)NC(=O)[C@H](CO)NC(=O)[C@H](Cc1c[nH]c2ccccc12)NC(=O)[C@H](Cc1c[nH]cn1)NC(=O)[C@@H]1CCC(=O)N1)C(=O)N[C@@H](CC(C)(C)C)C(=O)N[C@@H](CCCNC(=N)N)C(=O)N1CCC[C@H]1C(=O)NCC(N)=O` [Example 3, pGlu-His-Trp-Ser-Tyr-D-Ala-Npg-Arg-Pro-Gly-NH2] ([pGlu]HWSY[dA][tBuAla]RPG-NH2), the Ki on LH-RH receptors [1] is 0.269 nM. At LH-RH receptors [2], this molecule displayed a Total plasma testosterone of 16.7 ± 1.9 nmol/L.
`CCNC(=O)[C@@H]1CCCN1C(=O)[C@H](CCCNC(=N)N)NC(=O)[C@H](CC(C)(C)C)NC(=O)[C@@H](C)NC(=O)[C@H](Cc1ccc(O)cc1)NC(=O)[C@H](CO)NC(=O)[C@H](Cc1c[nH]c2ccccc12)NC(=O)[C@H](Cc1c[nH]cn1)NC(=O)[C@@H]1CCC(=O)N1` [Example 4, pGlu-His-Trp-Ser-Tyr-D-Ala-Npg-Arg-Pro-NEt] gave a Ki on LH-RH receptors [1] of 0.0977 nM. The same molecule gave a Total plasma testosterone at LH-RH receptors [2] of 33.8 ± 5.8 nmol/L.
In the case of `CCNC(=O)[C@@H]1CCCN1C(=O)[C@H](CCCNC(=N)N)NC(=O)[C@H](CC(C)(C)C)NC(=O)[C@@H](CC(C)C)NC(=O)[C@H](Cc1ccc(O)cc1)NC(=O)[C@H](CO)NC(=O)[C@H](Cc1c[nH]c2ccccc12)NC(=O)[C@H](Cc1c[nH]cn1)NC(=O)[C@@H]1CCC(=O)N1` [Example 6, pGlu-His-Trp-Ser-Tyr-D-Leu-Npg-Arg-Pro-NEt], the Ki at LH-RH receptors [1] is 0.468 nM. Besides, on LH-RH receptors [2] (10 ng/kg s.c.), the “activity in stimulating testosterone secretion relative to the Leu^7 counterpart” value was “a little more than twice as active as leuprorelin” and the “agonistic potency in words” value is on record as “Npg^7 led to more potent agonists than Ada^7; also recorded: more potent LH-RH agonists than current therapeutic LH-RH analogues”. Moreover, at LH-RH receptors [2], the Total plasma testosterone was determined as 48.6 ± 4.3 nmol/L.
`CCNC(=O)[C@@H]1CCCN1C(=O)[C@H](CCCNC(=N)N)NC(=O)[C@H](CC(C)(C)C)NC(=O)[C@@H](CC(C)(C)C)NC(=O)[C@H](Cc1ccc(O)cc1)NC(=O)[C@H](CO)NC(=O)[C@H](Cc1c[nH]c2ccccc12)NC(=O)[C@H](Cc1c[nH]cn1)NC(=O)[C@@H]1CCC(=O)N1` [Example 8, pGlu-His-Trp-Ser-Tyr-D-Npg-Npg-Arg-Pro-NEt] gave a Ki on LH-RH receptors [1] of 1.86 nM.
Molecule `CC(C)(C)C[C@H](NC(=O)[C@@H](Cc1ccccc1)NC(=O)[C@H](Cc1ccc(O)cc1)NC(=O)[C@H](CO)NC(=O)[C@H](Cc1c[nH]c2ccccc12)NC(=O)[C@H](Cc1c[nH]cn1)NC(=O)[C@@H]1CCC(=O)N1)C(=O)N[C@@H](CCCNC(=N)N)C(=O)N1CCC[C@H]1C(=O)NCC(N)=O` [Example 9, pGlu-His-Trp-Ser-Tyr-D-Phe-Npg-Arg-Pro-Gly-NH2] ([pGlu]HWSY[dF][tBuAla]RPG-NH2) gave a Ki on LH-RH receptors [1] of 2.34 nM. Also, the “agonistic potency in words” value on LH-RH receptors [2] (10 ng/kg s.c.) was “range of potency similar to that of leuprorelin or tryptorelin”. In addition, the Total plasma testosterone at LH-RH receptors [2] amounted to 30.9 ± 3.6 nmol/L.
`CCNC(=O)[C@@H]1CCCN1C(=O)[C@H](CCCNC(=N)N)NC(=O)[C@H](CC(C)(C)C)NC(=O)[C@@H](Cc1ccccc1)NC(=O)[C@H](Cc1ccc(O)cc1)NC(=O)[C@H](CO)NC(=O)[C@H](Cc1c[nH]c2ccccc12)NC(=O)[C@H](Cc1c[nH]cn1)NC(=O)[C@@H]1CCC(=O)N1` [Example 10, pGlu-His-Trp-Ser-Tyr-D-Phe-Npg-Arg-Pro-NEt] had a Ki at LH-RH receptors [1] of 0.229 nM. The Total plasma testosterone on LH-RH receptors [2] came out at 23.5 ± 4.0 nmol/L.
On the same counts, the results for `CCNC(=O)[C@@H]1CCCN1C(=O)[C@H](CCCNC(=N)N)NC(=O)[C@H](CC(C)(C)C)NC(=O)[C@@H](Cc1c[nH]c2ccccc12)NC(=O)[C@H](Cc1ccc(O)cc1)NC(=O)[C@H](CO)NC(=O)[C@H](Cc1c[nH]c2ccccc12)NC(=O)[C@H](Cc1c[nH]cn1)NC(=O)[C@@H]1CCC(=O)N1` [Example 12, pGlu-His-Trp-Ser-Tyr-D-Trp-Npg-Arg-Pro-NEt] are 0.162 nM and 20.5 ± 5.2 nmol/L.
`CCNC(=O)[C@@H]1CCCN1C(=O)[C@H](CCCNC(=N)N)NC(=O)[C@H](CC(C)(C)C)NC(=O)[C@@H](Cc1ccc2ccccc2c1)NC(=O)[C@H](Cc1ccc(O)cc1)NC(=O)[C@H](CO)NC(=O)[C@H](Cc1c[nH]c2ccccc12)NC(=O)[C@H](Cc1c[nH]cn1)NC(=O)[C@@H]1CCC(=O)N1` [Example 14, pGlu-His-Trp-Ser-Tyr-D-Nal-Npg-Arg-Pro-NEt] had a Ki on LH-RH receptors [1] of 0.316 nM.
`CCNC(=O)[C@@H]1CCCN1C(=O)[C@H](CCCNC(=N)N)NC(=O)[C@H](CC(C)C)NC(=O)[C@@H](Cc1ccccc1)NC(=O)[C@H](Cc1ccc(O)cc1)NC(=O)[C@H](CO)NC(=O)[C@H](Cc1c[nH]c2ccccc12)NC(=O)[C@H](Cc1c[nH]cn1)NC(=O)[C@@H]1CCC(=O)N1` [[D-Phe^6, Pro^9NEt]-LH-RH, reference compound] returned a Total plasma testosterone at LH-RH receptors [2] of 16.7 ± 4.3 nmol/L.
As for “AcD-Nal-D-pClPhe-D-Pal-Ser-NicLys-D-NicLys-Npg-IprLys-Pro-D-Ala-NH2 (peptide)”, the pKi in experiment [3] is 9.23 -log Ki.
On the same count and under the same terms, the same measure for “AcD-Nal-D-pClPhe-D-Pal-Ser-Tyr-D-Cit-Npg-IprLys-Pro-D-Ala-NH2 (peptide)”: 9.72 -log Ki.
Same read-out and setting: the figure for “AcD-Nal-D-pClPhe-D-Pal-Ser-Tyr-D-HCit-Npg-IprLys-Pro-D-Ala-NH2 (peptide)” is 10.1 -log Ki; for Goserelin (peptide) it is 8.58 -log Ki.
With “pGlu-His-Trp-Ser-Tyr-D-Ala-Ada-Arg-Pro-NEt [Example 28]”, the “agonistic potency in words” value at LH-RH receptors [2] (10 ng/kg s.c.) is recorded as “the Ada^7 replacement was more favorable than Npg^7; also recorded: more potent LH-RH agonists than current therapeutic LH-RH analogues”. Moreover, the Total plasma testosterone at LH-RH receptors [2] turned out to be 44.9 ± 6.0 nmol/L.
Turning to “pGlu-His-Trp-Ser-Tyr-D-Ala-Npg-Arg-Pro-NEt (peptide)”, the pKi in experiment [3] is 10 -log Ki.
Regarding “pGlu-His-Trp-Ser-Tyr-D-Leu-Ada-Arg-Pro-NEt [Example 29]”, the Total plasma testosterone on LH-RH receptors [2] is 36.2 ± 4.5 nmol/L.
Consider “pGlu-His-Trp-Ser-Tyr-D-Nal-Npg-Arg-Pro-NEt (peptide)”, for which, in experiment [3], the pKi was 9.5 -log Ki.
Same read-out and setting: the same measure for “pGlu-His-Trp-Ser-Tyr-D-Npg-Npg-Arg-Pro-NEt (peptide)”: 8.73 -log Ki.
On to “pGlu-His-Trp-Ser-Tyr-D-Phe-Ada-Arg-Pro-NEt [Example 27]”, for which, on LH-RH receptors [2] (10 ng/kg s.c.), the “agonistic potency in words” value is on record as “the Ada^7 replacement was more favorable than Npg^7”. The molecule also gave a Total plasma testosterone at LH-RH receptors [2] of 28.0 ± 4.1 nmol/L.
Take “pGlu-His-Trp-Ser-Tyr-D-Phe-Npg-Arg-Pro-NEt (peptide)”: the pKi in experiment [3] was 9.64 -log Ki.
In the case of “pGlu-His-Trp-Ser-Tyr-D-Trp-Ada-Arg-Pro-Gly-NH2 [Example 30]”, on LH-RH receptors [2], the Total plasma testosterone was found to be 24.8 ± 4.1 nmol/L.
Take “pGlu-His-Trp-Ser-Tyr-D-Trp-Npg-Arg-Pro-NEt (peptide)”: in experiment [3], the pKi is 9.79 -log Ki.

B1: AcD-Nal-D-pClPhe-D-Pal-Ser-Tyr-D-Cit-Npg-Arg-Pro-D-Ala-NH2 (peptide)
peptide: Ac-X[dPhe(4-Cl)][d3Pal]SY[dCit][tBuAla]RP[dA]-NH2
modifications: not fully specified (residue 1); printed as AcD-Nal-D-pClPhe-D-Pal-Ser-Tyr-D-Cit-Npg-Arg-Pro-D-Ala-NH2; also: trifluoroacetate salt
With B1, in experiment [3], the pKi was 10.2 -log Ki.

B2: AcD-Nal-D-pClPhe-D-Pal-Ser-Tyr-D-HCit-Npg-Arg-Pro-D-Ala-NH2 (peptide)
peptide: Ac-X[dPhe(4-Cl)][d3Pal]SY[d(hCit)][tBuAla]RP[dA]-NH2
modifications: not fully specified (residue 1); printed as AcD-Nal-D-pClPhe-D-Pal-Ser-Tyr-D-HCit-Npg-Arg-Pro-D-Ala-NH2; also: trifluoroacetate salt
Turning to B2, the pKi in experiment [3] was 10.1 -log Ki.

B3: pGlu-His-Trp-Ser-Tyr-D-Npg-Npg-Arg-Pro-Gly-NH2 (peptide)
peptide: XHWSYXXRPG
modifications: pGlu at 1; D-Npg at 6; Npg at 7; C-terminal Gly-NH2 (amide)
For the molecule B3, the pKi in experiment [3] was 8.2 -log Ki.

B4: pGlu-His-Trp-Ser-Tyr-D-Nal-Npg-Arg-Pro-Gly-NH2 (peptide)
peptide: XHWSYXXRPG
modifications: pGlu at 1; D-Nal (3-(2-naphtyl)alanine) at 6; Npg at 7; C-terminal Gly-NH2 (amide)
In the case of B4, in experiment [3], the negative-log Ki (pKi) is 8.97 -log Ki.

B5: pGlu-His-Trp-Ser-Tyr-D-Phe-Npg-Arg-Pro-Gly-NH2 (peptide)
peptide: XHWSYXXRPG
modifications: pGlu at 1; D-Phe at 6; Npg at 7; C-terminal Gly-NH2 (amide)
For B5, the pKi in experiment [3] is 8.63 -log Ki.

B6: pGlu-His-Trp-Ser-Tyr-D-Ala-Npg-Arg-Pro-Gly-NH2 (peptide)
peptide: XHWSYXXRPG
modifications: pGlu at 1; D-Ala at 6; Npg at 7; C-terminal Gly-NH2 (amide)
Regarding B6, the pKi in experiment [3] was 9.57 -log Ki.
